The test system of data set [1] is bicistronic HCV replicon (replicon RNA, GenBank Accession No. AJ242654). Description: HCV Replicon Assay. Format: cell-based. The conditions noted are these: Hepatitis C virus, 72 h, read-out: Replicon IC50.

pIC50: −log10 of the molar value.

As a reminder, the pIC50 is the negative decadic logarithm of the IC50, by convention in mol/L. As a reminder, the melting point is the temperature of the solid-liquid transition. Molecule `CC(C)NS(=O)(=O)c1cnc(-c2c(C#N)c3cc(F)ccc3n2C2CCCC2)nc1` [compound 603, 2-(3-cyano-1-cyclopentyl-5-fluoro-1H-indol-2-yl)-N-(propan-2-yl)pyrimidine-5-sulfonamide] gave a melting point of 217 to 222 °C. The pIC50 in data set [1] was over 6.30.

Consider `C[C@@H](NS(=O)(=O)c1ccc(-c2c(C#N)c3ccc(C(F)F)cc3n2C2CCC2)nc1)C(F)(F)F` [compound 334, 6-[3-cyano-1-cyclobutyl-6-(difluoromethyl)-1H-indol-2-yl]-N-[(2R)-1,1,1-trifluoropropan-2-yl]pyridine-3-sulfonamide], for which the melting point was in the range of 200 to 206 °C. Besides, the pIC50 in data set [1] is over 6.30.

In turn, `C[C@H](NS(=O)(=O)c1cnc(-c2c(C#N)c3ccc(C4CC4)cc3n2C2CCCC2)nc1)C(F)(F)F` [compound 401, 2-(3-cyano-1-cyclopentyl-6-cyclopropyl-1H-indol-2-yl)-N-[(2S)-1,1,1-trifluoropropan-2-yl]pyrimidine-5-sulfonamide] returned a melting point of 238 to 239 °C. In addition, the pIC50 in data set [1] is over 6.30.

Molecule `Cc1ccc2c(c1)c(C#N)c(-c1ccc(S(=O)(=O)NC(CF)CF)cn1)n2C1CCCC1` [compound 158, 6-(3-cyano-1-cyclopentyl-5-methyl-1H-indol-2-yl)-N-(1,3-difluoropropan-2-yl)pyridine-3-sulfonamide] showed a melting point of 168 to 173 °C. In addition, the pIC50 in data set [1] is over 6.30.

Consider `C[C@H](NS(=O)(=O)c1cnc(-c2c(C#N)c3cc(F)ccc3n2C2CCC2)nc1)C(F)(F)F` [compound 451, 2-(3-cyano-1-cyclobutyl-5-fluoro-1H-indol-2-yl)-N-[(2S)-1,1,1-trifluoropropan-2-yl]pyrimidine-5-sulfonamide], for which the melting point lay in the range of 198 to 203 °C. The pIC50 in data set [1] was over 6.30.

`C[C@H](NS(=O)(=O)c1ccc(-c2c(C#N)c3cc(C#N)ccc3n2C2CCCC2)nc1)C(F)(F)F` [compound 346, 6-(3,5-dicyano-1-cyclopentyl-1H-indol-2-yl)-N-[(2S)-1,1,1-trifluoropropan-2-yl]pyridine-3-sulfonamide] came in with a melting point of 225 to 228 °C. Also, the pIC50 in data set [1] was over 6.30.

In the case of `C[C@@H](NS(=O)(=O)c1ccc(-c2c(C#N)c3ccc(OC(F)F)cc3n2-c2ccccc2)nc1)C(F)(F)F` [compound 554, 6-[3-cyano-6-(difluoromethoxy)-1-phenyl-1H-indol-2-yl]-N-[(2R)-1,1,1-trifluoropropan-2-yl]pyridine-3-sulfonamide], the melting point is 212 to 213 °C. The pIC50 in data set [1] was over 6.30.

In turn, `CCc1cc2c(cc1F)c(C#N)c(-c1ccc(S(=O)(=O)N[C@@H](C)C(F)(F)F)cn1)n2-c1ccc(F)cn1` [compound 777, 6-[3-cyano-6-ethyl-5-fluoro-1-(5-fluoropyridin-2-yl)-1H-indol-2-yl]-N-[(2S)-1,1,1-trifluoropropan-2-yl]pyridine-3-sulfonamide] registered a melting point of 210 to 212 °C. Also, the pIC50 in data set [1] was over 6.30.

Take `N#Cc1c(-c2ncc(S(=O)(=O)NC(CF)CF)cn2)n(C2CCC2)c2cc(OC(F)F)ccc12` [compound 129, 2-[3-cyano-1-cyclobutyl-6-(difluoromethoxy)-1H-indol-2-yl]-N-(1,3-difluoropropan-2-yl)pyrimidine-5-sulfonamide]: the melting point was 205 to 207 °C. Moreover, in data set [1], the pIC50 is over 6.30.

Consider `N#Cc1c(-c2ccc(S(=O)(=O)NC(CF)CF)cn2)n(C2CCC2)c2ccc(F)cc12` [compound 29, 6-(3-cyano-1-cyclobutyl-5-fluoro-1H-indol-2-yl)-N-(1,3-difluoropropan-2-yl)pyridine-3-sulfonamide], for which the melting point lay in the range of 206 to 208 °C. In data set [1], the pIC50 was over 6.30.

Molecule `CCc1cc2c(cc1F)c(C#N)c(-c1ccc(S(=O)(=O)N[C@@H](C)C(F)(F)F)cn1)n2-c1cccc(F)n1` [compound 930, 6-[3-cyano-6-ethyl-5-fluoro-1-(6-fluoropyridin-2-yl)-1H-indol-2-yl]-N-[(2S)-1,1,1-trifluoropropan-2-yl]pyridine-3-sulfonamide] displayed a melting point of 205 to 211 °C. Also, the pIC50 in data set [1] is over 6.30.

The molecule `N#Cc1c(-c2ncc(S(=O)(=O)NC(CF)CF)cn2)n(C2CCC2)c2cc(CF)ccc12` [compound 361, 2-[3-cyano-1-cyclobutyl-6-(fluoromethyl)-1H-indol-2-yl]-N-(1,3-difluoropropan-2-yl)pyrimidine-5-sulfonamide] came in with a melting point of 226 to 232 °C. The pIC50 in data set [1] was over 6.30.

As to `N#Cc1c(-c2ccc(S(=O)(=O)NC(CF)CF)cn2)n(C2CC2)c2cc(C3CC3)ccc12` [compound 147, 6-(3-cyano-1,6-dicyclopropyl-1H-indol-2-yl)-N-(1,3-difluoropropan-2-yl)pyridine-3-sulfonamide], the melting point was in the range of 226 to 228 °C. Further, the pIC50 in data set [1] was over 6.30.

The molecule `CCS(=O)(=O)Nc1ccc(-c2c(C#N)c3ccc(OCC(F)(F)F)cc3n2CC2CC2)nc1` [compound 284, N-{6-[3-cyano-1-(cyclopropylmethyl)-6-(2,2,2-trifluoroethoxy)-1H-indol-2-yl]pyridin-3-yl}ethanesulfonamide] had a melting point of 190 to 195 °C. Also, in data set [1], the pIC50 was 5.70 to 6.30.

The molecule `CC(C)n1c(-c2ccc(S(=O)(=O)NC(CF)CF)cn2)c(C#N)c2ccc(F)cc21` [compound 61, 6-[3-cyano-6-fluoro-1-(propan-2-yl)-1H-indol-2-yl]-N-(1,3-difluoropropan-2-yl)pyridine-3-sulfonamide] gave a melting point of 155 to 156 °C. Also, the pIC50 in data set [1] was over 6.30.

The molecule `COc1ccc2c(C#N)c(-c3ccc(S(=O)(=O)N[C@@H](C)C4CC4)cn3)n(C3CCC3)c2c1` [compound 429, 6-(3-cyano-1-cyclobutyl-6-methoxy-1H-indol-2-yl)-N-[(1S)-1-cyclopropylethyl]pyridine-3-sulfonamide] gave a melting point of 193 to 199 °C. The pIC50 in data set [1] is over 6.30.

The molecule `Cc1cc2c(cc1F)c(C#N)c(-c1ccc(S(=O)(=O)N[C@@H](C)C(F)(F)F)cn1)n2-c1ccnc(F)c1` [compound 1013, 6-[3-cyano-5-fluoro-1-(2-fluoropyridin-4-yl)-6-methyl-1H-indol-2-yl]-N-[(2S)-1,1,1-trifluoropropan-2-yl]pyridine-3-sulfonamide] came in with a melting point of 243.4 to 246.9 °C. Also, the pIC50 in data set [1] is over 6.30.

Take `C[C@H](NS(=O)(=O)c1cnc(-c2c(C#N)c3ccc(F)cc3n2C2CCCCC2)nc1)C(F)(F)F` [compound 411, 2-(3-cyano-1-cyclohexyl-6-fluoro-1H-indol-2-yl)-N-[(2S)-1,1,1-trifluoropropan-2-yl]pyrimidine-5-sulfonamide]: the melting point lay in the range of 224 to 226 °C. The pIC50 in data set [1] is 5.70 to 6.30.

The molecule `CC(C)NS(=O)(=O)c1cnc(-c2c(C(N)=O)c3ccc(Cl)cc3n2C2CCC2)nc1` [compound 780, 6-chloro-1-cyclobutyl-2-[5-(propan-2-ylsulfamoyl)pyrimidin-2-yl]-1H-indole-3-carboxamide] came in with a melting point of 251 to 253 °C. Besides, the pIC50 in data set [1] is over 6.30.

`N#Cc1c(-c2ccc(S(=O)(=O)NC(CF)CF)cn2)n(CC2CC2)c2cc(OC(F)F)ccc12` [compound 41, 6-[3-cyano-1-(cyclopropylmethyl)-6-(difluoromethoxy)-1H-indol-2-yl]-N-(1,3-difluoropropan-2-yl)pyridine-3-sulfonamide] had a melting point of 150 to 151 °C. In data set [1], the pIC50 was over 6.30.

With `C[C@H](NS(=O)(=O)c1ccc(-c2c(C#N)c3cc(F)c(C4CC4)cc3n2-c2ncccn2)nc1)C(F)(F)F` [compound 820, 6-[3-cyano-6-cyclopropyl-5-fluoro-1-(pyrimidin-2-yl)-1H-indol-2-yl]-N-[(2S)-1,1,1-trifluoropropan-2-yl]pyridine-3-sulfonamide], the melting point lay in the range of 236 to 240 °C. In addition, in data set [1], the pIC50 was over 6.30.

`Cc1cc2c(cc1O)c(C#N)c(-c1ccc(S(=O)(=O)N[C@@H](C)C(F)(F)F)cn1)n2C1CCC1` [compound 796, 6-(3-cyano-1-cyclobutyl-5-hydroxy-6-methyl-1H-indol-2-yl)-N-[(2S)-1,1,1-trifluoropropan-2-yl]pyridine-3-sulfonamide] yielded a melting point of 193 to 195 °C. In addition, in data set [1], the pIC50 is over 6.30.

The molecule `Cc1ccc2c(C#N)c(-c3ncc(S(=O)(=O)NC(C)C)cn3)n(C3CCCC3)c2c1` [compound 74, 2-(3-cyano-1-cyclopentyl-6-methyl-1H-indol-2-yl)-N-(propan-2-yl)pyrimidine-5-sulfonamide] had a melting point of 213 to 214 °C. For the same molecule, the pIC50 in data set [1] is over 6.30.

Molecule `C[C@H](NS(=O)(=O)c1cnc(-c2c(C#N)c3cc(F)ccc3n2C2CCC2)nc1)C1CC1` [compound 544, 2-(3-cyano-1-cyclobutyl-5-fluoro-1H-indol-2-yl)-N-[(1S)-1-cyclopropylethyl]pyrimidine-5-sulfonamide] came in with a melting point of 178 to 181 °C. Also, the pIC50 in data set [1] was over 6.30.

In turn, `C[C@H](NS(=O)(=O)c1ccc(-c2c(C#N)c3ccc(C4CC4)cc3n2C2CCC2)nc1)C1CC1` [compound 236, 6-(3-cyano-1-cyclobutyl-6-cyclopropyl-1H-indol-2-yl)-N-[(1S)-1-cyclopropylethyl]pyridine-3-sulfonamide] showed a melting point of 170 to 176 °C. Also, the pIC50 in data set [1] is over 6.30.

As for `[2H]C([2H])([2H])c1cc2c(cc1F)c(C#N)c(-c1ccc(S(=O)(=O)N[C@@]([2H])(C)C(F)(F)F)cn1)n2C1CCC1` [compound 1114, 6-[3-cyano-1-cyclobutyl-5-fluoro-6-(1,1,1-trideuterium)methyl-1H-indol-2-yl]-N-[(2S)-1,1,1-trifluoro(2-deuterium)propan-2-yl]pyridine-3-sulfonamide], the melting point fell in the range of 213 to 215 °C. In addition, the pIC50 in data set [1] was over 6.30.

The molecule `CCCn1c(-c2ccc(S(=O)(=O)N[C@@H](C)C(F)(F)F)cn2)c(C#N)c2cc(F)c(OC(F)F)cc21` [compound 786, 6-[3-cyano-6-(difluoromethoxy)-5-fluoro-1-propyl-1H-indol-2-yl]-N-[(2S)-1,1,1-trifluoropropan-2-yl]pyridine-3-sulfonamide] registered a melting point of 162 to 168 °C. In data set [1], the pIC50 was over 6.30.

Source of the values: patent US8735414B2 (priority 2009, dated 2014).
